From EP0148431A1, “Benzimidazoles, their preparation, and medicaments containing these compounds” (Dr. Karl Thomae GmbH, priority 1983, dated 1985)
Like-named read-outs stand apart in the source and are kept apart here.

Tested on: narkotisierten Katze
Details: anaesthetised cats (pentobarbital sodium 40 mg/kg i.p.), mean of at least 3 cats
Description: Beispielsweise wurden die Verbindungen • A = 2-(2-Methoxy-4-methylsulfonyl-phenyl)-5-cyano-benzimidazol und • B = 2-(2-Methoxy-4-propargyloxy-phenyl)-5-cyano-benzimidazol auf ihre biologischen Eigenschaften wie folgt untersucht: • Bestimmung der Blutdruckwirkung und der positiv inotropen Wirkung an der narkotisierten Katze
Die Untersuchungen wurden an Katzen durchgeführt, die mit Pentobarbital-Natrium (40 mg/kg i.p.) narkotisiert waren. Die Tiere atmeten spontan. Der arterielle Blutdruck wurde in der Aorta abdominalis mit einem Statham-Druckwandler (P 23 Dc) gemessen. Für die Erfassung der positiv inotropen Wirkung wurde mit einem Kathetertipmanometer (Millar PC-350 A) der Druck in der linken Herzkammer gemessen. Daraus wurde der Kontraktilitätsparameter d^p/dtmax mittels eines Analogdifferenzierers gewonnen. Die zu untersuchenden Substanzen wurden in eine Vena femoralis injiziert. Als Lösungsmittel diente Polydiol 200. Jede Substanz wurde an mindestens 3 Katzen geprüft.

SMILES | Zunahme von dp/dtmax in % (0,2 mg/kg i.v.) [%] | Zunahme von dp/dtmax in % (0,6 mg/kg i.v.) [%] | Zunahme von dp/dtmax in % (2,0 mg/kg i.v.) [%]
COc1cc(S(C)(=O)=O)ccc1-c1nc2ccc(C#N)cc2[nH]1 [A, 2-(2-Methoxy-4-methylsulfonyl-phenyl)-5-cyano-benzimidazol] | 51 | 96 | 79
C#CCOc1ccc(-c2nc3ccc(C#N)cc3[nH]2)c(OC)c1 [B, 2-(2-Methoxy-4-propargyloxy-phenyl)-5-cyano-benzimidazol] | 33 | 48 | 85
